Results from paper PMC5944969, “Characterization of a nontypeable Haemophilus influenzae thermonuclease” (PLoS ONE, 2018).

Columns and labels:
[1] = molecular target: T1, NTHi Nuc (Haemophilus influenzae, UniProt Q57519); assay: FRET nuclease assay, Cy3/BHQ2 single-stranded 30-mer DNA; format: biochemical; details: competitive (stated); pdTp 0.015 and 0.03 nM; enzyme 0.035 nM; 2 µM FRET substrate; 26 °C
T1 construct: gene HI_1296; N-terminal 6xHis tag (pET151/D-TOPO) cleaved with TEV protease; E. coli BL21*(DE3)
T1 sequence (Q57519 21-178): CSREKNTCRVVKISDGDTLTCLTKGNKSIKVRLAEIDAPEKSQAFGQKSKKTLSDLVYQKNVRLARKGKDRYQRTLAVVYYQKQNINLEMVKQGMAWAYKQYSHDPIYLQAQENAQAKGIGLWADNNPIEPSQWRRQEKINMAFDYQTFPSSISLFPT

[2] = molecular target: T1, NTHi Nuc; assay: thermal unfolding by dynamic light scattering; format: binding; details: pH 7; excess pdTp; onset temperature with ligand, not a shift; ramp 1.0 °C/min
Description: thermal unfolding by dynamic light scattering on NTHi Nuc

## Cc1cn([C@H]2C[C@H](OP(=O)(O)O)[C@@H](COP(=O)(O)O)O2)c(=O)[nH]c1=O [thymidine 3,5-bisphosphate]
[1]
  FRET nuclease assay, Cy3/BHQ2 single-stranded 30-mer DNA: Half and equimolar concentrations of pdTp impacted initial rates of endonuclease activity
[2]
  Tonset: 48.1 ± 1.45 °C
